Assay [1] relates to Plasma. In words: Anticoagulant potency in citreated human plasma assessed as prolongation of thromboplastin-induced prothrombin time at 2 uM by coagulometer. The format is functional.
Assay [2] has as its system Plasma. In words: Anticoagulant potency in citreated human plasma assessed as prolongation of thromboplastin-induced prothrombin time at 20 uM by coagulometer. The class given is functional.
Assay [3] concerns the target Prothrombin (Homo sapiens) (UniProt P00734). In words: Binding affinity to human thrombin assessed as concentration required to double fibrinogen clotting time by coagulometer.

The structures appear in SMILES notation.

With `Cc1cn(CC(C)(COP(=O)(O)OC[C@H]2O[C@@H](n3cnc4c(=O)[nH]c(N)nc43)[C@H](O)[C@@H]2OP(=O)(O)OC[C@H]2O[C@@H](n3cnc4c(=O)[nH]c(N)nc43)[C@H](O)[C@@H]2O)COP(=O)(O)O[C@H]2C[C@H](n3cc(C)c(=O)[nH]c3=O)O[C@@H]2COP(=O)(O)O[C@H]2[C@@H](O)[C@H](n3cnc4c(=O)[nH]c(N)nc43)O[C@@H]2COP(=O)(O)O[C@H]2[C@@H](O)[C@H](n3cnc4c(=O)[nH]c(N)nc43)O[C@@H]2COP(=O)(O)O[C@H]2C[C@H](n3cc(C)c(=O)[nH]c3=O)O[C@@H]2COP(=O)(O)O[C@H]2[C@@H](O)[C@H](n3cnc4c(=O)[nH]c(N)nc43)O[C@@H]2COP(=O)(O)O[C@H]2C[C@H](n3cc(C)c(=O)[nH]c3=O)O[C@@H]2COP(=O)(O)O[C@H]2[C@@H](O)[C@H](n3cnc4c(=O)[nH]c(N)nc43)O[C@@H]2COP(=O)(O)O[C@H]2[C@@H](O)[C@H](n3cnc4c(=O)[nH]c(N)nc43)O[C@@H]2COP(=O)(O)O[C@H]2C[C@H](n3cc(C)c(=O)[nH]c3=O)O[C@@H]2COP(=O)(O)O[C@H]2C[C@H](n3cc(C)c(=O)[nH]c3=O)O[C@@H]2COP(=O)(O)O[C@H]2[C@@H](O)[C@H](n3cnc4c(=O)[nH]c(N)nc43)O[C@@H]2COP(=O)(O)O[C@H]2[C@@H](O)[C@H](n3cnc4c(=O)[nH]c(N)nc43)O[C@@H]2CO)c(=O)[nH]c1=O` (stereo partly specified), the Activity in the assay on Plasma [1] turned out to be 17.5 s; in the assay with Plasma [2] it was 46.97 s; in assay [3], 100 nM.

For the compound `Cc1cn(CC(C)(COP(=O)(O)OC[C@H]2O[C@@H](n3cnc4c(=O)[nH]c(N)nc43)[C@H](O)[C@@H]2OP(=O)(O)OC[C@H]2O[C@@H](n3cnc4c(=O)[nH]c(N)nc43)[C@H](O)[C@@H]2OP(=O)(O)OC[C@H]2O[C@@H](n3cc(C)c(=O)[nH]c3=O)C[C@@H]2OP(=O)(O)OC[C@H]2O[C@@H](n3cnc4c(=O)[nH]c(N)nc43)[C@H](O)[C@@H]2OP(=O)(O)OC[C@H]2O[C@@H](n3cc(C)c(=O)[nH]c3=O)C[C@@H]2OP(=O)(O)OC[C@H]2O[C@@H](n3cnc4c(=O)[nH]c(N)nc43)[C@H](O)[C@@H]2OP(=O)(O)OC[C@H]2O[C@@H](n3cnc4c(=O)[nH]c(N)nc43)[C@H](O)[C@@H]2OP(=O)(O)OC[C@H]2O[C@@H](n3cc(C)c(=O)[nH]c3=O)C[C@@H]2OP(=O)(O)OC[C@H]2O[C@@H](n3cc(C)c(=O)[nH]c3=O)C[C@@H]2OP(=O)(O)OC[C@H]2O[C@@H](n3cnc4c(=O)[nH]c(N)nc43)[C@H](O)[C@@H]2OP(=O)(O)OC[C@H]2O[C@@H](n3cnc4c(=O)[nH]c(N)nc43)[C@H](O)[C@@H]2O)COP(=O)(O)O[C@H]2C[C@H](n3cc(C)c(=O)[nH]c3=O)O[C@@H]2COP(=O)(O)O[C@H]2[C@@H](O)[C@H](n3cnc4c(=O)[nH]c(N)nc43)O[C@@H]2COP(=O)(O)O[C@H]2[C@@H](O)[C@H](n3cnc4c(=O)[nH]c(N)nc43)O[C@@H]2CO)c(=O)[nH]c1=O` (stereo partly specified), the results for the Activity (in the assay on Plasma [1]; with Plasma [2]; in assay [3]) were 14.5 s, 32.28 s and 250 nM, respectively.

Consider `Cc1cn(CC(C)(COP(=O)(O)OC[C@H]2O[C@@H](n3cc(C)c(=O)[nH]c3=O)C[C@@H]2OP(=O)(O)OC[C@H]2O[C@@H](n3cnc4c(=O)[nH]c(N)nc43)[C@H](O)[C@@H]2OP(=O)(O)OC[C@H]2O[C@@H](n3cnc4c(=O)[nH]c(N)nc43)[C@H](O)[C@@H]2OP(=O)(O)OC[C@H]2O[C@@H](n3cc(C)c(=O)[nH]c3=O)C[C@@H]2OP(=O)(O)OC[C@H]2O[C@@H](n3cnc4c(=O)[nH]c(N)nc43)[C@H](O)[C@@H]2OP(=O)(O)OC[C@H]2O[C@@H](n3cc(C)c(=O)[nH]c3=O)C[C@@H]2OP(=O)(O)OC[C@H]2O[C@@H](n3cnc4c(=O)[nH]c(N)nc43)[C@H](O)[C@@H]2OP(=O)(O)OC[C@H]2O[C@@H](n3cnc4c(=O)[nH]c(N)nc43)[C@H](O)[C@@H]2OP(=O)(O)OC[C@H]2O[C@@H](n3cc(C)c(=O)[nH]c3=O)C[C@@H]2OP(=O)(O)OC[C@H]2O[C@@H](n3cc(C)c(=O)[nH]c3=O)C[C@@H]2OP(=O)(O)OC[C@H]2O[C@@H](n3cnc4c(=O)[nH]c(N)nc43)[C@H](O)[C@@H]2OP(=O)(O)OC[C@H]2O[C@@H](n3cnc4c(=O)[nH]c(N)nc43)[C@H](O)[C@@H]2O)COP(=O)(O)O[C@H]2[C@@H](O)[C@H](n3cnc4c(=O)[nH]c(N)nc43)O[C@@H]2COP(=O)(O)O[C@H]2[C@@H](O)[C@H](n3cnc4c(=O)[nH]c(N)nc43)O[C@@H]2CO)c(=O)[nH]c1=O` (stereo partly specified), for which the Activity is 14.3 s in the assay with Plasma [1], 35.15 s in the assay with Plasma [2] and 238 nM in assay [3].

On to `Cc1cn([C@H]2C[C@H](OP(=O)(O)OC[C@H]3O[C@@H](n4cnc5c(=O)[nH]c(N)nc54)[C@H](O)[C@@H]3OP(=O)(O)OC[C@H]3O[C@@H](n4cnc5c(=O)[nH]c(N)nc54)[C@H](O)[C@@H]3OP(=O)(O)OC[C@H]3O[C@@H](n4cc(C)c(=O)[nH]c4=O)C[C@@H]3OP(=O)(O)OC[C@H]3O[C@@H](n4cc(C)c(=O)[nH]c4=O)C[C@@H]3OP(=O)(O)OC[C@H]3O[C@@H](n4cnc5c(=O)[nH]c(N)nc54)[C@H](O)[C@@H]3OP(=O)(O)OC[C@H]3O[C@@H](n4cnc5c(=O)[nH]c(N)nc54)[C@H](O)[C@@H]3O)[C@@H](COP(=O)(O)O[C@H]3[C@@H](O)[C@H](n4cnc5c(=O)[nH]c(N)nc54)O[C@@H]3COP(=O)(O)O[C@H]3C[C@H](n4cc(C)c(=O)[nH]c4=O)O[C@@H]3COP(=O)(O)O[C@H]3[C@@H](O)[C@H](n4cnc5c(=O)[nH]c(N)nc54)O[C@@H]3COP(=O)(O)O[C@H]3[C@@H](O)[C@H](n4cnc5c(=O)[nH]c(N)nc54)O[C@@H]3COP(=O)(O)O[C@H]3C[C@H](n4cc(C)c(=O)[nH]c4=O)O[C@@H]3COP(=O)(O)O[C@H]3C[C@H](n4cc(C)c(=O)[nH]c4=O)O[C@@H]3COP(=O)(O)O[C@H]3[C@@H](O)[C@H](n4cnc5c(=O)[nH]c(N)nc54)O[C@@H]3COP(=O)(O)O[C@H]3[C@@H](O)[C@H](n4cnc5c(=O)[nH]c(N)nc54)O[C@@H]3CO)O2)c(=O)[nH]c1=O` [THROMBIN APTAMER], for which the Activity came to 22.6 s in the assay on Plasma [1], 53.68 s in the assay on Plasma [2] and 175 nM in assay [3].

As to `Cc1cn(CC(C)(COP(=O)(O)OC[C@H]2O[C@@H](n3cc(C)c(=O)[nH]c3=O)C[C@@H]2OP(=O)(O)OC[C@H]2O[C@@H](n3cnc4c(=O)[nH]c(N)nc43)[C@H](O)[C@@H]2OP(=O)(O)OC[C@H]2O[C@@H](n3cnc4c(=O)[nH]c(N)nc43)[C@H](O)[C@@H]2O)COP(=O)(O)O[C@H]2[C@@H](O)[C@H](n3cnc4c(=O)[nH]c(N)nc43)O[C@@H]2COP(=O)(O)O[C@H]2[C@@H](O)[C@H](n3cnc4c(=O)[nH]c(N)nc43)O[C@@H]2COP(=O)(O)O[C@H]2C[C@H](n3cc(C)c(=O)[nH]c3=O)O[C@@H]2COP(=O)(O)O[C@H]2[C@@H](O)[C@H](n3cnc4c(=O)[nH]c(N)nc43)O[C@@H]2COP(=O)(O)O[C@H]2C[C@H](n3cc(C)c(=O)[nH]c3=O)O[C@@H]2COP(=O)(O)O[C@H]2[C@@H](O)[C@H](n3cnc4c(=O)[nH]c(N)nc43)O[C@@H]2COP(=O)(O)O[C@H]2[C@@H](O)[C@H](n3cnc4c(=O)[nH]c(N)nc43)O[C@@H]2COP(=O)(O)O[C@H]2C[C@H](n3cc(C)c(=O)[nH]c3=O)O[C@@H]2COP(=O)(O)O[C@H]2C[C@H](n3cc(C)c(=O)[nH]c3=O)O[C@@H]2COP(=O)(O)O[C@H]2[C@@H](O)[C@H](n3cnc4c(=O)[nH]c(N)nc43)O[C@@H]2COP(=O)(O)O[C@H]2[C@@H](O)[C@H](n3cnc4c(=O)[nH]c(N)nc43)O[C@@H]2CO)c(=O)[nH]c1=O` (stereo partly specified), the Activity with Plasma [1] is 18.07 s; in the assay on Plasma [2], 44.83 s; in assay [3], 78 nM.

As to `Cc1cn(CC(C)(COP(=O)(O)OC[C@H]2O[C@@H](n3cnc4c(=O)[nH]c(N)nc43)[C@H](O)[C@@H]2OP(=O)(O)OC[C@H]2O[C@@H](n3cc(C)c(=O)[nH]c3=O)C[C@@H]2OP(=O)(O)OC[C@H]2O[C@@H](n3cnc4c(=O)[nH]c(N)nc43)[C@H](O)[C@@H]2OP(=O)(O)OC[C@H]2O[C@@H](n3cnc4c(=O)[nH]c(N)nc43)[C@H](O)[C@@H]2OP(=O)(O)OC[C@H]2O[C@@H](n3cc(C)c(=O)[nH]c3=O)C[C@@H]2OP(=O)(O)OC[C@H]2O[C@@H](n3cc(C)c(=O)[nH]c3=O)C[C@@H]2OP(=O)(O)OC[C@H]2O[C@@H](n3cnc4c(=O)[nH]c(N)nc43)[C@H](O)[C@@H]2OP(=O)(O)OC[C@H]2O[C@@H](n3cnc4c(=O)[nH]c(N)nc43)[C@H](O)[C@@H]2O)COP(=O)(O)O[C@H]2[C@@H](O)[C@H](n3cnc4c(=O)[nH]c(N)nc43)O[C@@H]2COP(=O)(O)O[C@H]2[C@@H](O)[C@H](n3cnc4c(=O)[nH]c(N)nc43)O[C@@H]2COP(=O)(O)O[C@H]2C[C@H](n3cc(C)c(=O)[nH]c3=O)O[C@@H]2COP(=O)(O)O[C@H]2C[C@H](n3cc(C)c(=O)[nH]c3=O)O[C@@H]2COP(=O)(O)O[C@H]2[C@@H](O)[C@H](n3cnc4c(=O)[nH]c(N)nc43)O[C@@H]2COP(=O)(O)O[C@H]2[C@@H](O)[C@H](n3cnc4c(=O)[nH]c(N)nc43)O[C@@H]2CO)c(=O)[nH]c1=O` (stereo partly specified), the values for the Activity (with Plasma [1]; with Plasma [2]; in assay [3]) were 24.67 s, 60.2 s and 70 nM, respectively.

On to `Cc1cn(CC(C)(COP(=O)(O)OC[C@H]2O[C@@H](n3cnc4c(=O)[nH]c(N)nc43)[C@H](O)[C@@H]2OP(=O)(O)OC[C@H]2O[C@@H](n3cnc4c(=O)[nH]c(N)nc43)[C@H](O)[C@@H]2OP(=O)(O)OC[C@H]2O[C@@H](n3cc(C)c(=O)[nH]c3=O)C[C@@H]2OP(=O)(O)OC[C@H]2O[C@@H](n3cc(C)c(=O)[nH]c3=O)C[C@@H]2OP(=O)(O)OC[C@H]2O[C@@H](n3cnc4c(=O)[nH]c(N)nc43)[C@H](O)[C@@H]2OP(=O)(O)OC[C@H]2O[C@@H](n3cnc4c(=O)[nH]c(N)nc43)[C@H](O)[C@@H]2O)COP(=O)(O)O[C@H]2[C@@H](O)[C@H](n3cnc4c(=O)[nH]c(N)nc43)O[C@@H]2COP(=O)(O)O[C@H]2C[C@H](n3cc(C)c(=O)[nH]c3=O)O[C@@H]2COP(=O)(O)O[C@H]2[C@@H](O)[C@H](n3cnc4c(=O)[nH]c(N)nc43)O[C@@H]2COP(=O)(O)O[C@H]2[C@@H](O)[C@H](n3cnc4c(=O)[nH]c(N)nc43)O[C@@H]2COP(=O)(O)O[C@H]2C[C@H](n3cc(C)c(=O)[nH]c3=O)O[C@@H]2COP(=O)(O)O[C@H]2C[C@H](n3cc(C)c(=O)[nH]c3=O)O[C@@H]2COP(=O)(O)O[C@H]2[C@@H](O)[C@H](n3cnc4c(=O)[nH]c(N)nc43)O[C@@H]2COP(=O)(O)O[C@H]2[C@@H](O)[C@H](n3cnc4c(=O)[nH]c(N)nc43)O[C@@H]2CO)c(=O)[nH]c1=O` (stereo partly specified), for which the Activity is 13.23 s in the assay on Plasma [1], 34.65 s with Plasma [2] and 210 nM in assay [3].
